Measurements reported in ChEMBL document CHEMBL1201862, “PubChem BioAssay data set” (2004).
Active and inactive are the calls of the source.

Legend:
Cytochrome P450 2D6 = Cytochrome P450 2D6 (Homo sapiens, UniProt P10635);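 further: CYP2D6 member of a cytochrome P450 panel assay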
Cytochrome P450 2C9 = Cytochrome P450 2C9 (Homo sapiens, UniProt P11712)
[1] = biological target: T1, Calpain-2 catalytic subunit (Sus scrofa, UniProt P43367); assay: m-calpain protease blockers, concentration series – biochemical, fluorogenic peptide substrate, dose response (AID 1420); type: functional
T1 sequence (P43367 whole entry): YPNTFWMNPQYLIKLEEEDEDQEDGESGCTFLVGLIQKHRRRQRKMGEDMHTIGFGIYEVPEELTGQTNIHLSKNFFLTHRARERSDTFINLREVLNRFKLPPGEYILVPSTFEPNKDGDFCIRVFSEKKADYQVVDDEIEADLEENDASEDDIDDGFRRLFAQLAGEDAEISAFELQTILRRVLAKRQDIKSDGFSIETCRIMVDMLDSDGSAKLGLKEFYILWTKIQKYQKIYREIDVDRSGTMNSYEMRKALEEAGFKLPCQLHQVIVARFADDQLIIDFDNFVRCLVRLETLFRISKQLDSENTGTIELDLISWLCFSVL

Cytochrome P450 2C19 = Cytochrome P450 2C19 (Homo sapiens, UniProt P33261); assay: Cytochrome panel assay with activity outcomes. Panel member name: p450-cyp2c19 Compounds with AC50 equal or less than 10 uM are considered active; type: functional
Chain of Cytochrome P450 2C19 (P33261 whole entry): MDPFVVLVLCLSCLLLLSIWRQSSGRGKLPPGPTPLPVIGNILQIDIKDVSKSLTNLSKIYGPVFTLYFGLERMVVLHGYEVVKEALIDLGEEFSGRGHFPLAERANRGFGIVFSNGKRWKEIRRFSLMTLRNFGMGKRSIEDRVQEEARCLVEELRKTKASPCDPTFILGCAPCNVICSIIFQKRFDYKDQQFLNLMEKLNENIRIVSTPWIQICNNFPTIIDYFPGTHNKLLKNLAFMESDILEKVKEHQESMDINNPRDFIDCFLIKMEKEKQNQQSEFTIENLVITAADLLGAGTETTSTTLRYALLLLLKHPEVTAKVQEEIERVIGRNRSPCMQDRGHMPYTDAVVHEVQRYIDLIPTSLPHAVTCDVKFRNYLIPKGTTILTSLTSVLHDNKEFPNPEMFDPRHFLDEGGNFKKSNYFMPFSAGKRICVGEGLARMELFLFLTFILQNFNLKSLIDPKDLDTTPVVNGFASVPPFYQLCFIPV

Cytochrome P450 1A2 = biological target: T2, Cytochrome P450 1A2 (Homo sapiens, UniProt P05177);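 further: PubChem cytochrome P450 panel assay, CYP1A2 panel member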
T2 sequence (P05177 whole entry): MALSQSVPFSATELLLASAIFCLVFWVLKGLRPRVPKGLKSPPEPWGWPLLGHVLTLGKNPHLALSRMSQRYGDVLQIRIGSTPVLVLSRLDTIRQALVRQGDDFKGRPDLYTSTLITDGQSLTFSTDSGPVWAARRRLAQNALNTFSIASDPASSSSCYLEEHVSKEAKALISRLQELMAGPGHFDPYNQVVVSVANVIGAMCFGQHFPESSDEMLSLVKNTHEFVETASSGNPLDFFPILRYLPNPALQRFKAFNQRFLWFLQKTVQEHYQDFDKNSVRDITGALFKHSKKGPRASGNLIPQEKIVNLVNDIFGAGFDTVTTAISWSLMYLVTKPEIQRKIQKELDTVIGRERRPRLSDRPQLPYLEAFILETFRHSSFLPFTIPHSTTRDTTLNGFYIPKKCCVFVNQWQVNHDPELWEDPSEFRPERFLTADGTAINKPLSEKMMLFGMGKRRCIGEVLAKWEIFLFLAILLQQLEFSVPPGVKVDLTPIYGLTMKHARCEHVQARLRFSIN

Cytochrome P450 3A4 = Cytochrome P450 3A4 (Homo sapiens, UniProt P08684);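 further: CYP3A4 tested as one member of a cytochrome P450 panel screen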
Chain of Cytochrome P450 3A4 (P08684 whole entry): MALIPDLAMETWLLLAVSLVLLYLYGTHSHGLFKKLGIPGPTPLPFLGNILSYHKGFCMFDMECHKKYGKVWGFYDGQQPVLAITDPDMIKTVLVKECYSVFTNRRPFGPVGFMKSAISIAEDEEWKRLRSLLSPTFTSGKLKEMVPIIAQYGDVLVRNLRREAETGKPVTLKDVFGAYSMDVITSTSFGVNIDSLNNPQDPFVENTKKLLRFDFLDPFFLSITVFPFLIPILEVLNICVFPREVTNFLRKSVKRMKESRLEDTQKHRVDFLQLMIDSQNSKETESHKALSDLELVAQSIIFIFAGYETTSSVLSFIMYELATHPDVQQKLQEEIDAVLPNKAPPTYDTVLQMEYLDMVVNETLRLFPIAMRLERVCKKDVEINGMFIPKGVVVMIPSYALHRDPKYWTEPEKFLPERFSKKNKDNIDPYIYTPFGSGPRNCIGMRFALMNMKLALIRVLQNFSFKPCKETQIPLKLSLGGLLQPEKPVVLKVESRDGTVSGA

H9c2 = assay: cells; type: functional, cell-based; conditions: Rattus norvegicus, H9c2, Myocardium;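 further: confirmatory concentration-response retest of ultra-high-throughput screening hits for modulation of myocardial damage; cell death induced by hydrogen peroxide oxidative stress; compound pretreatment for 60 min then peroxide exposure for 2 h; potency is for protecting the cells against peroxide damage rather than for killing them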
P388/ADR = assay: cells; type: functional; conditions: Mus musculus
SN12K1 = assay: cells; type: functional; conditions: Homo sapiens
P388 = assay: cells; type: functional; conditions: Mus musculus
[2] = viability of PTEN-deleted HCT116 cells – cell-based, HCT116 PTEN knockout, dose response (AID 1047); type: functional;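 further: HCT116 colon tumor cells with PTEN knocked out; cells exposed to compound for 60 hours before readout; potency for loss of cell viability measured by luminescence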
[3] = viability of HCT116 lacking mutant beta-catenin – cell-based, human colon tumor, dose response (AID 1045); type: functional;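 further: HCT116 colon tumor cells with beta catenin knocked out; cells exposed to compound for 60 hours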
[4] = blockers of HIV-1 envelope-mediated cell-cell fusion – cherry-pick, dose response (AID 652057); type: functional, cell-based
[5] = HIV-1 AD8 envelope cell-cell fusion blockers – cherry-pick, dose response (AID 652062); type: functional, cell-based;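 further: luciferase signal from cell-cell fusion driven by HIV-1 clade B AD8 Env; potency is for inhibitors of fusion seen as a drop in luminescence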
[6] = NIH-3T3 fibroblast cytotoxicity, dose response, cytotoxicity control, cell-based, fluorescence, Alamar Blue, secondary assay (AID 2327); type: functional;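 further: NIH-3T3 mouse fibroblasts cultured with fluconazole at 8 µg/mL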
[7] = system: Streptococcus sp. 'group A'; assay: Streptococcus pyogenes SK(-)GAS viability under kanamycin – luminescence, BacTiterGlo, confirmation, counter-screen for streptokinase expression inhibitor project, dose response (AID 1900); type: functional, organism-based
Streptococcus = assay: GAS UMAA2166 growth inhibition – luminescence, BacTiterGlo, counter-screen for streptokinase expression inhibitor project, dose response (AID 1915); type: functional, organism-based;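 further: potency for reduction of bacterial viability or growth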
INS1 = assay: INS-1E survival protection against cytokine death – cell-based, luminescence, retest, dose response (AID 449756); type: functional; conditions: Rattus norvegicus;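 further: cell death triggered by IL-1 beta plus TNF-alpha plus IFN-gamma mixture; protective hits raise ATP signal compared with cytokine alone wells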

Chain of Cytochrome P450 2C9 (P11712 whole entry): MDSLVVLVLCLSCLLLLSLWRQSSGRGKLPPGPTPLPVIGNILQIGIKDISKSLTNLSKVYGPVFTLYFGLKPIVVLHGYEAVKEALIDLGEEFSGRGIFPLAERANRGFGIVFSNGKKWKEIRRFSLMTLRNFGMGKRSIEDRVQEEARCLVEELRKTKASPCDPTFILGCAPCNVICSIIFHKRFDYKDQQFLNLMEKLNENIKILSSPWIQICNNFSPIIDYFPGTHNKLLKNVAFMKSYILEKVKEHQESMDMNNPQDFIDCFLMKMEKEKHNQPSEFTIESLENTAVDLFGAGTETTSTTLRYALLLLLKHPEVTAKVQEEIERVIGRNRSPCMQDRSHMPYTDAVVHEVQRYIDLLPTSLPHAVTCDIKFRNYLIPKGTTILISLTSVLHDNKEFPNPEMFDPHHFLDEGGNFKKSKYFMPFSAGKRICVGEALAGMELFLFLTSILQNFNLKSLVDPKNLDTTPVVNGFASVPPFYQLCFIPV
Chain of Cytochrome P450 2D6 (P10635 whole entry): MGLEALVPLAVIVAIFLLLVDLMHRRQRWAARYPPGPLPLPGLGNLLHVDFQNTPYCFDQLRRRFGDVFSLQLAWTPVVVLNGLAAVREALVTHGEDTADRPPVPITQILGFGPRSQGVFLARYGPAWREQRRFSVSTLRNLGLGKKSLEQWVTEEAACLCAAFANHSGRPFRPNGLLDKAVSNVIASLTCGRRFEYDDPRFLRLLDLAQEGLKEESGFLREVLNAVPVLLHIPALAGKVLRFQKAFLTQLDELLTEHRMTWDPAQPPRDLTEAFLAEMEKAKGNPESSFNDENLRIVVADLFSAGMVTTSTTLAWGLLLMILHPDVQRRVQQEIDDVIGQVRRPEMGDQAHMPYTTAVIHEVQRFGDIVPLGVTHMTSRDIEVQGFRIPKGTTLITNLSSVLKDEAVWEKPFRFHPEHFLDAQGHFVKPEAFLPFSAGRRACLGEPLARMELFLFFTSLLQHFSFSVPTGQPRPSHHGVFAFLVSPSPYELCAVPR

Compound: CC(=O)N1c2c(cc(Br)cc2S(=O)(=O)NCC2COc3ccccc3O2)CC1C (configuration not stated)
- AC50 (Cytochrome P450 2D6): 17.8 µM (inconclusive)
- AC50 (Cytochrome P450 2C9): inconclusive

Compound: CSc1ncccc1C(=O)OCC(=O)Nc1ccc2c(c1)OCO2
- IC50 [1]: < 0.4 µM (not active)

Compound: CCOc1ccc(OCc2ccc(C(=O)N3CCCC(C)C3)cc2)cc1 (configuration not stated)
- IC50 [1]: 10.5 µM (active)

Compound: COc1cccc(CNc2ccc([N+](=O)[O-])c(NCC(=O)O)n2)c1
- IC50 [1]: 5.38 µM (active)

Compound: O=C1c2cccc([N+](=O)[O-])c2C(=O)N1c1ncn[nH]1
- AC50 (Cytochrome P450 2C19): inconclusive
- AC50 (Cytochrome P450 1A2): 3.16 µM (inconclusive)
- AC50 (Cytochrome P450 3A4): 3.98 µM (inconclusive)
- AC50 (Cytochrome P450 2C9): inconclusive

Compound: Cc1ccc(CNc2nc(Cl)c(C#N)s2)cc1
- IC50 [1]: 4.33 µM (not active)

Compound: CCOC(=O)c1sc(SCC(=O)Nc2ccc(N(C)C)cc2)nc1N
- IC50 [1]: 30.7 µM (not active)

Compound: CCCc1cc(-c2nnc(S)n2CC(C)C)cs1
- IC50 [1]: > 50 µM (not active)

Compound: O=C(NCC(=O)N(c1ccc(F)cc1)C(C(=O)NC1CCCC1)c1cccnc1)c1cccs1 (configuration not stated)
- IC50 [1]: < 0.4 µM (not active)

Compound: Cc1noc(C)c1COC(=O)CNC(=O)c1cccc(F)c1
- IC50 [1]: > 50 µM (not active)

Compound: Cc1cccc(OCCC(=O)Nc2ccc(C)c(S(=O)(=O)N3CCCCC3)c2)c1
- IC50 [1]: 5.33 µM (not active)

Compound: COc1cc(-c2nnc(-c3ccc(N4CCOCC4)cc3)o2)cc(OC)c1OC
- IC50 (H9c2): > 79 µM (inactive)
- AC50 (Cytochrome P450 3A4): 7.94 µM (inconclusive)
- AC50 (Cytochrome P450 2C9): inconclusive

Compound: CNc1nc(-c2ccccc2Cl)nc2ccccc12
- AC50 (Cytochrome P450 2D6): 39.8 µM (inconclusive)
- AC50 (Cytochrome P450 2C9): inconclusive

Compound: CNC(=O)OCc1nc(SSC(C)(C)C)n(C)c1COC(=O)NC
- GI50 (P388/ADR): 2.47 µM (inactive)
- GI50 (SN12K1): 5.13 µM (inactive)
- GI50 (P388): 1.12 µM (inactive)

Compound: O=NN(CCCl)C(=O)N[C@H]1CC[C@@H](C(=O)O)CC1
- GI50 (P388/ADR): 5.26 µM (inactive)
- GI50 (SN12K1): 98.6 µM (inactive)
- GI50 (P388): 5.14 µM (inactive)

Compound: ClCc1nnc2n1-c1ccc(Cl)cc1SC2
- GI50 (P388/ADR): 1.66 µM (inactive)
- GI50 (SN12K1): 2.83 µM (inactive)
- GI50 (P388): 0.927 µM (active)

Compound: CCOC(=O)C1=C(c2ccccc2)N=c2s/c(=C\c3ccc(O)cc3)c(=O)n2C1c1cccs1 (configuration not stated)
- EC50 [2]: 19.7 µM (active)
- EC50 [3]: 17.9 µM (active)
- AC50 (Cytochrome P450 2C19; read-out: AC50): 3.98 µM (inconclusive)
- AC50 (Cytochrome P450 2C9): inconclusive

Compound: Cc1c(N=NN(C)C)cc[n+]([O-])c1C
- GI50 (P388/ADR): > 100 µM (inactive)
- GI50 (SN12K1): > 100 µM (inactive)
- GI50 (P388): > 100 µM (inactive)

Compound: C=C/C(C)=C/[C@H](C)C(=O)C[C@H](O)CC1CC(=O)NC(=O)C1
- GI50 (P388/ADR): 27.2 µM (inactive)
- GI50 (SN12K1): 35.5 µM (inactive)
- GI50 (P388): 9.86 µM (inactive)

Compound: O=c1cnn(C2OC(CO)C(O)C2O)c(=S)[nH]1 (configuration not stated)
- GI50 (P388/ADR): 0.933 µM (active)
- GI50 (SN12K1): 3.06 µM (inactive)
- GI50 (P388): 1.92 µM (inactive)

Compound: C#CC[C@@]12CC(=O)C[C@@H]1CCC1(C2)OCCO1.C#CC[C@]12CC(=O)CC[C@H]1CC(=O)C2
- GI50 (P388/ADR): 36.6 µM (inactive)
- GI50 (SN12K1): > 100 µM (inactive)
- GI50 (P388): 23.7 µM (inactive)

Compound: N/C(=N\O)N/N=C\c1cc([N+](=O)[O-])cc([N+](=O)[O-])c1O
- GI50 (P388/ADR): 7.59 µM (inactive)
- GI50 (SN12K1): 0.743 µM (active)
- GI50 (P388): 2.3 µM (inactive)

Compound: CCOC(=O)C(N)CSC(=O)NC (configuration not stated)
- GI50 (P388/ADR): 12.3 µM (inactive)
- GI50 (SN12K1): 44.1 µM (inactive)
- GI50 (P388): 30.1 µM (inactive)

Compound: C/C([O-])=C(/c1nc(-c2ccc([N+](=O)[O-])o2)no1)[n+]1cc(C)ccc1C
- GI50 (P388/ADR): > 100 µM (inactive)
- GI50 (SN12K1): 13.4 µM (inactive)
- GI50 (P388): 54.8 µM (inactive)

Compound: CSc1nc2c(ncn2C2OCC(O)C(O)C2O)c(=O)n1C (configuration not stated)
- GI50 (P388/ADR): > 100 µM (inactive)
- GI50 (SN12K1): > 100 µM (inactive)
- GI50 (P388): > 100 µM (inactive)

Compound: C[C@@H]1CN([C@@H](C)CO)C(=O)c2cccc(NC(=O)C3CCCCC3)c2O[C@H]1CN(C)CC1CCCCC1
- AC50 [4]: 3.12 µM (active)
- AC50 [5]: 67.1 µM (active)

Compound: C[C@H](CO)N1C[C@H](C)[C@H](CN(C)S(=O)(=O)c2ccc(F)cc2)Oc2ccc(NS(=O)(=O)c3ccccc3)cc2CC1=O
- AC50 [4]: 16.8 µM (active)
- AC50 [5]: 28.2 µM (active)

Compound: C[C@H](C(=O)N(C)C[C@@H]1OCc2ccccc2-c2ccccc2C(=O)N([C@@H](C)CO)C[C@@H]1C)c1ccccc1
- AC50 [4]: < 0.26 µM (active)
- AC50 [5]: < 0.26 µM (active)

Compound: C[C@H](CO)N1C[C@H](C)[C@H](CN(C)S(=O)(=O)c2cccs2)Oc2ccc(NC(=O)C3CCCCC3)cc2CC1=O
- AC50 [4]: 0.436 µM (active)
- AC50 [5]: 5.23 µM (active)

Compound: CCOC(=O)c1ccc(N[C@@H]2c3cc4c(cc3C(c3cc(OC)c(O)c(OC)c3)[C@H]3C(=O)OCC32)OCO4)cc1 (some centres not stated)
- GI50 (P388/ADR): 0.0256 µM (active)
- GI50 (SN12K1): < 0.01 µM (active)
- GI50 (P388): < 0.01 µM (active)

Compound: COc1cc(C2c3cc4c(cc3[C@@H](Nc3cccc(C(C)=O)c3)C3COC(=O)[C@H]23)OCO4)cc(OC)c1O (some centres not stated)
- GI50 (P388/ADR): 0.124 µM (active)
- GI50 (SN12K1): < 0.0361 µM (active)
- GI50 (P388): < 0.01 µM (active)

Compound: O=C(NC(c1ccccc1)C(O)C(=O)OCc1ccc2c(c1)C(=O)c1ccccc1C2=O)c1ccccc1 (configuration not stated)
- GI50 (P388/ADR): 33.8 µM (inactive)
- GI50 (SN12K1): 1.84 µM (inactive)
- GI50 (P388): 90.2 µM (inactive)

Compound: COc1cc(C2c3cc4c(cc3[C@@H](Nc3ccc(N5CCOCC5)cc3)C3COC(=O)[C@H]23)OCO4)cc(OC)c1O (some centres not stated)
- GI50 (P388/ADR): 0.0735 µM (active)
- GI50 (SN12K1): 1 µM (active)
- GI50 (P388): < 0.01 µM (active)

Compound: Cc1ccc(NCC(=O)N/N=C/c2c[nH]c3ccccc23)cc1
- IC50 [1]: 16.1 µM (not active)

Compound: CN(C(=O)c1ccc(OCCCC(=O)O)c(Cl)c1Cl)C1CCCC1
- GI50 (P388/ADR): > 100 µM (inactive)
- GI50 (SN12K1): > 89.5 µM (inactive)
- GI50 (P388): > 100 µM (inactive)

Compound: CO[C@H]1C[C@](C)(O)Cc2cc3c(c(O)c21)C(=O)c1c(O)cc2c(c1C3=O)O[C@@H]1O[C@@]2(C)[C@H](O)[C@@H](N(C)C)[C@@H]1O
- GI50 (P388/ADR): 1.21 µM (inactive)
- GI50 (SN12K1): 0.0736 µM (active)
- GI50 (P388): 0.054 µM (active)

Compound: CCCCCCCCCCCC1=C(O)C(=O)C=C(O)C1=O [EMBELIN]
- EC50 [6]: 5.02 µM (inconclusive)
- EC50 [7]: 1.58 µM (active)
- EC50 (Streptococcus): 3.32 µM (active)
- GI50 (P388/ADR): 9.66 µM (inactive)
- GI50 (SN12K1): 3.74 µM (inactive)
- GI50 (P388): 1.78 µM (inactive)

Compound: COc1ccc2cc1Oc1ccc(cc1)C[C@H]1c3cc(c(OC)cc3CCN1C)Oc1c(O)c(OC)cc3c1[C@H](C2)N(C)CC3 [FANGCHINOLINE]
- AC50 (INS1): 5.84 µM (active)
- GI50 (P388/ADR): 2.58 µM (inactive)
- GI50 (SN12K1): 18.3 µM (inactive)
- GI50 (P388): 2 µM (inactive)

Compound: CC(=O)NCCCCCCNC(C)=O [HEXAMETHYLENEBISACETAMIDE]
- GI50 (P388/ADR): 3520 µM (inactive)
- GI50 (SN12K1): 9930 µM (inactive)
- GI50 (P388): 4260 µM (inactive)
